Assay results: patent US20250042887A1, “GLYCOGEN SYNTHASE KINASE-3 (GSK3) INHIBITOR COMPOUNDS FOR USE AS ANTIVIRAL AGENTS” (priority 2021, published 2025)
Entries after “also recorded” stand apart in the source; their conditions may differ. Read-outs that look alike come from different tables or passages of the source.

Columns and labels:
SARS-CoV-2 [1] = test: Viral titer released from 48-hour SARS-CoV-2 infected Calu-3 cells; assay type: cell-based; details: 48 hours after infection, 100 μM
SARS-CoV-2 [2] = test: SARS-CoV-2 infected primary donor-derived colon organoids, intracellular N protein; assay type: cell-based; details: donor intestinal organoids monolayer, 72-hours post infection, dose-dependent
HCoV-229E [3] = test: High-content screen of GSK3β-focused library in HCoV-229E infected Huh-7.5.1 cells (intracellular dsRNA); assay type: cell-based, human coronavirus 229E (HCoV-229E); details: Human coronavirus 229E, single dose of 10 μM, Z′ 0.7
Huh-7.5.1 cells = details: single dose of 10 μM
Procedure: High content screening methodology and parameters. Monitoring of the total number of cells (based on nuclei staining) and number of virus infected cells (based on dsRNA and Nucleocapsid staining) was performed using the CellInsight CX7™ High Content Screening platform (Thermo Fisher™), as previously described (33042061). Shortly, nuclei are identified and counted using the 350′461 nm wavelength (Hoechst 33342™); cell debris and other particles are deducted based on a size filter tool. A Region of Interest (ROI, or “circle”) is then drawn around each host cell and validated against the bright field image to correspond with host cell membranes. The ROI encompasses the “spots”, where dsRNA (485/521 nm wavelength) and SARS-CoV-2 nucleocapsid (533/588 nm wavelength) are localized. Finally, the software (HCS Studio Cell Analysis Software™, version 4.0) identifies, counts and measures the pixel area and intensity of the spots within each circle. The fluorescent spot area measured within each cell (circle) is then added and quantified for each well. The total circle spot intensity of each well corresponds to the viral load, and is normalized to non-infected cells, and to cells infected with no compound. Nuclei stain (Hoechst 33342™) was used to quantify cell loss (due to cytotoxicity or loss of adherence), and to normalize the changes in viral load resulting from a decrease in cell numbers.

[4] = system: SARS-CoV-2 Spike S1 protein expression; assay type: cell-based
HCoV-229E [5] = test: Dose-response of HCoV-229E viral load (dsRNA) in Huh-7.5.1 cells; assay type: cell-based, human coronavirus 229E (HCoV-229E); details: Human coronavirus 229E, read-out: ED50 (HCoV-229E)
HCoV-229E [6] = assay type: cell-based, human coronavirus 229E (HCoV-229E)
SARS-CoV-2 [7] = test: Dose-response inhibition in three SARS-CoV-2 infected immortalized cell lines (Huh-7.5.1, Caco-2, Calu-3); assay type: cell-based; details: Severe acute respiratory syndrome coronavirus 2; Huh-7.5.1, Caco-2 and Calu-3 cells; read-out: ED50 in all investigated cell lines
SARS-CoV-2 [8] = test: High-content screen of GSK3β-focused library in SARS-CoV-2 infected Huh-7.5.1 cells (dsRNA or nucleocapsid); assay type: cell-based; details: Severe acute respiratory syndrome coronavirus 2, single dose of 10 μM, Huh-7.5.1 cells
SARS-CoV-2 [9] = test: Dose-response of SARS-CoV-2 viral load (intracellular N protein) in Huh-7.5.1 cells; assay type: cell-based
in vitro = details: human
[10] = target: T1, glycogen synthase kinase-3-beta (Homo sapiens, UniProt P49841); test: In vitro phosphorylation of nucleocapsid peptides, ADP-Glo, GSK3b; assay type: biochemical
T1 construct: GST; purchased SignalChem Go9-10G
T1 sequence (P49841 whole entry): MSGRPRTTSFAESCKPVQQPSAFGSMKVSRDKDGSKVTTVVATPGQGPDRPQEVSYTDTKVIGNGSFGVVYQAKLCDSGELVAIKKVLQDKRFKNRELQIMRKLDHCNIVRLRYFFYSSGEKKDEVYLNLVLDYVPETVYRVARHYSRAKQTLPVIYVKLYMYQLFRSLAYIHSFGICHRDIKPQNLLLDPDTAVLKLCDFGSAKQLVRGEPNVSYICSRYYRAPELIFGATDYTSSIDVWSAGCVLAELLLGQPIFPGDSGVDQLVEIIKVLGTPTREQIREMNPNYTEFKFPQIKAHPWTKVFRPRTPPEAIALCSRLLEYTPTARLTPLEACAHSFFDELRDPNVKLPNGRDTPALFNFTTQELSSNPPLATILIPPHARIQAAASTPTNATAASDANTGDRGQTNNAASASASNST

PKCa + GSK3b = test: In vitro phosphorylation of nucleocapsid peptides, ADP-Glo, PKCa + GSK3b combined; assay type: biochemical, human; details: Mean ± S.Dev. (n = 3); no kinase control = 100
[11] = target: T2, protein kinase C-alpha (PKC α) (Homo sapiens, UniProt P17252); test: In vitro phosphorylation of nucleocapsid peptides, ADP-Glo, PKCa; assay type: biochemical; details: Mean ± S.Dev. (n = 3); no kinase control = 100
T2 construct: GST; purchased SignalChem P61-18G

casein kinase 1-delta = target: T3, casein kinase 1-delta (Homo sapiens, UniProt P48730); test: In vitro phosphorylation of nucleocapsid peptides, ADP-Glo, CK1d; assay type: biochemical; details: peptide ~250 μM, 250 μM ATP, 30 min at 30° C.; duplicate measurements
T3 construct: GST; purchased SignalChem C65-10G
T3 sequence (P48730 whole entry): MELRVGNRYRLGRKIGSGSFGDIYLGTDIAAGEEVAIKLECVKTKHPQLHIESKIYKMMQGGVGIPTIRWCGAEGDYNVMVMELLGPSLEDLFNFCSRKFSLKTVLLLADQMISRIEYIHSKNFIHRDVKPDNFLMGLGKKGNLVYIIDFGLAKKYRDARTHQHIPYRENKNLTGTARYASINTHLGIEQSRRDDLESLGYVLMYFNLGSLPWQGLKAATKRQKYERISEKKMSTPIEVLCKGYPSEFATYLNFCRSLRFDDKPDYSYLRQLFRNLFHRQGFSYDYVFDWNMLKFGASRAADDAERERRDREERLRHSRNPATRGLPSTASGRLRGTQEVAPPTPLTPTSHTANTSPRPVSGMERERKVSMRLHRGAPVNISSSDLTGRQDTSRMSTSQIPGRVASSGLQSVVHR

[12] = target: T4, extracellularly-regulated kinase-1 (ERK1) (Homo sapiens, UniProt P27361); test: In vitro phosphorylation of nucleocapsid peptides, ADP-Glo, ERK1; assay type: biochemical; details: peptide ~250 μM, 250 μM ATP, 30 min at 30° C.; duplicate measurements
T4 construct: GST; purchased SignalChem M29-10G
T4 sequence (P27361 whole entry): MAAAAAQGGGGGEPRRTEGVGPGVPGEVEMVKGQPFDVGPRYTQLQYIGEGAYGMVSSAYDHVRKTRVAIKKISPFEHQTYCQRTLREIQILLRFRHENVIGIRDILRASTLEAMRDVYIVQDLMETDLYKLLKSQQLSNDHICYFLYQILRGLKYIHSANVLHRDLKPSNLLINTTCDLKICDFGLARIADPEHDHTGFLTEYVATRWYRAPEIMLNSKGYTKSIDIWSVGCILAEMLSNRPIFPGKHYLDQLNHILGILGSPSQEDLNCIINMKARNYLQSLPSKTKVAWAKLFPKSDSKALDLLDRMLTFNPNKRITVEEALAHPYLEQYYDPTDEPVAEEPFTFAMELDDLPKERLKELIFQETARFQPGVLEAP

[13] = target: T5, casein kinase 1-gamma-1 (CK1γ1) (Homo sapiens, UniProt Q9HCP0); test: In vitro phosphorylation of nucleocapsid peptides, ADP-Glo, CK1g1; assay type: biochemical; details: peptide ~250 μM, 250 μM ATP, 30 min at 30° C.; duplicate measurements
T5 construct: GST; purchased SignalChem C68-11G
T5 sequence (Q9HCP0 whole entry): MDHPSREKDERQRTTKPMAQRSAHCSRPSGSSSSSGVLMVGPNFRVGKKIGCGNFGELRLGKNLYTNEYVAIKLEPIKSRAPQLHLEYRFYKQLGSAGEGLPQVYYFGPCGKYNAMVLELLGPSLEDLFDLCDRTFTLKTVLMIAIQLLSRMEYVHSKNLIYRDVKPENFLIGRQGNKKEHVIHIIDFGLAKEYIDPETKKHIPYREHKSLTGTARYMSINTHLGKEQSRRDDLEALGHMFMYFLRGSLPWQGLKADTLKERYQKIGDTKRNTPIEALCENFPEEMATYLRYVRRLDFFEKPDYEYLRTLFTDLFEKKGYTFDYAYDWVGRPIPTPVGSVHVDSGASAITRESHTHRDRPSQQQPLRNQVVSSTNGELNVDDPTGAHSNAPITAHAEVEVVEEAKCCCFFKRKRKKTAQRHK

[14] = target: cyclin-dependent kinase 2/cyclin A2 (CDK2/A2) (Homo sapiens, UniProt P24941); test: In vitro phosphorylation of nucleocapsid peptides, ADP-Glo, CDK2/cyclin A2; assay type: biochemical; details: peptide ~250 μM, 250 μM ATP, 30 min at 30° C.; duplicate measurements
[15] = target: cAMP-dependent protein kinase catalytic subunit-alpha (PKACa) (Homo sapiens, UniProt P17612); test: In vitro phosphorylation of nucleocapsid peptides, ADP-Glo, PKACa; assay type: biochemical; details: peptide ~250 μM, 250 μM ATP, 30 min at 30° C.; duplicate measurements

CSc1ccc(-n2cnc3ccc(-c4nnc(CCc5cccc(C#N)c5)o4)cc32)cc1 [Compound P-0717632]
reduction of release of infective particles (SARS-CoV-2 [1]): 2 log | effect on intracellular N protein levels in organoids (SARS-CoV-2 [2]): greatly decrease intracellular N protein levels | inhibition at 10 µM (HCoV-229E [3]): 97.6% | Average cell loss (%) (Huh-7.5.1 cells): 24.4% | Spike S1 protein expression [4]: blocked; also recorded: reduced | EC50 (HCoV-229E [5]): ~3 µM | average Combination Index (CI) (HCoV-229E [6]): 0.7 | EC50 (SARS-CoV-2 [7]): 4 to 7 µM | inhibition at 10 µM (SARS-CoV-2 [8]; Z′ 0.3, read-out: SARS-CoV-2 inhibition (% dsRNA)): 68.2% | inhibition at 10 µM (SARS-CoV-2 [8]; average of screens 1 and 2, read-out: Average SARS-CoV-2 Nucleocapsid inhibition): 79.3% | inhibition at 10 µM (SARS-CoV-2 [8]; screen 1, Z′ 0.7, read-out: SARS-CoV-2 inhibition (% Nucleocapsid) 1): 75.2% | inhibition at 10 µM (SARS-CoV-2 [8]; screen 2, Z′ 0.5, read-out: SARS-CoV-2 inhibition (% Nucleocapsid) 2): 83.3% | SARS-CoV-2 Selectivity Index SI (CC50 over ED50) (SARS-CoV-2 [9]; Huh 7.5.1 cells): 68 | ED80 (SARS-CoV-2 [9]; SARS-CoV-2 infected Huh-7.5.1 cells): 10 µM | EC50 (SARS-CoV-2 [9]; Severe acute respiratory syndrome coronavirus 2, Huh-7.5.1, Huh-7.5.1 cells, intracellular N protein, read-out: ED50 (SARS-CoV-2)): ~3 µM | CC50 (in vitro): > 100 µM

RNSTPGSSRGTSPAR [SCV2-N [195-209], synthetic peptide modeled after SARS-CoV-2 nucleocapsid protein phosphorylation sites]
Relative Phosphorylation to No Kinase Control, GSK3b ([10]; Mean ± S.Dev. (n = 3), no kinase control = 100): 3291 ± 57 | Relative Phosphorylation to Autophosphorylation Control (set at 100), GSK3b ([10]; peptide ~250 μM, 250 μM ATP, 30 min at 30° C., duplicate measurements): 137 | Relative Phosphorylation to No Kinase Control, PKCa + GSK3b (PKCa + GSK3b): 4262 ± 27 | Relative Phosphorylation to No Kinase Control, PKCa [11]: 3301 ± 114 | Relative Phosphorylation to Autophosphorylation Control (set at 100), CK1d (casein kinase 1-delta): 101 | Relative Phosphorylation to Autophosphorylation Control (set at 100), ERK1 [12]: 102 | Relative Phosphorylation to Autophosphorylation Control (set at 100), CK1g1 [13]: 104 | Relative Phosphorylation to Autophosphorylation Control (set at 100), CDK2 + Cyclin A2 [14]: 104 | Relative Phosphorylation to Autophosphorylation Control (set at 100), PKACa [15]: 151
